Numbered stars: 1 amine (or outer) side, 2 acyl side, 3 side chain; on linkers, the order of the positions; unused ones are H or OH. Square brackets hold non-standard residues; d marks the D form. Side chains are listed from the residue outwards. Peptide text beside a SMILES is read from it. * marks the point of attachment. C18 diacid = O=C(O)CCCCCCCCCCCCCCCCC(=O)*; γGlu = O=C(O)[C@H](CCC(=O)[*:2])N[*:1]; AEEA = NCCOCCOCC(=O)O

The target in this assay is glucagon receptor (Homo sapiens, UniProt P47871). Put plainly: cell-based.
glucagon receptor, sequence (P47871 26-477): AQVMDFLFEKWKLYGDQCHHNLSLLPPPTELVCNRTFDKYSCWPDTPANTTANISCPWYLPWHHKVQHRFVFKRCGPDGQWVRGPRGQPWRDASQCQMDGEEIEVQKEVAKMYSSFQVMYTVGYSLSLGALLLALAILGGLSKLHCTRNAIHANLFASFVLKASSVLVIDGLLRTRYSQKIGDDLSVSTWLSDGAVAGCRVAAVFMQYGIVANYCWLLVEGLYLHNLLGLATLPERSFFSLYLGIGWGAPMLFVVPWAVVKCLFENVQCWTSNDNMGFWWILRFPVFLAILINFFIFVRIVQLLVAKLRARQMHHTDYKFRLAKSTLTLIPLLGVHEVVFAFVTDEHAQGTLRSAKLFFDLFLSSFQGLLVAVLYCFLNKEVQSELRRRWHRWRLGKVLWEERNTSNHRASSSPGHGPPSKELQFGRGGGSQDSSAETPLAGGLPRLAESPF
As for `CC(C)C[C@H](NC(=O)[C@H](Cc1ccc(O)cc1)NC(=O)[C@H](CCCCN)NC(=O)[C@H](CO)NC(=O)[C@H](Cc1ccc(O)cc1)NC(=O)[C@H](CC(=O)O)NC(=O)[C@H](CO)NC(=O)[C@@H](NC(=O)[C@H](Cc1ccccc1)NC(=O)[C@@H](NC(=O)CNC(=O)[C@H](CCC(N)=O)NC(=O)[C@@H](CO)NC(=O)[C@@H](N)Cc1c[nH]cn1)[C@@H](C)O)[C@@H](C)O)C(=O)N[C@@H](CC(=O)O)C(=O)N[C@@H](CCC(=O)O)C(=O)N[C@@H](CCCNC(=N)N)C(=O)N[C@@H](CCCNC(=N)N)C(=O)N[C@@H](C)C(=O)N[C@@H](CCC(N)=O)C(=O)N[C@@H](CC(=O)O)C(=O)N[C@@H](Cc1ccccc1)C(=O)N[C@H](C(=O)N[C@@H](CCCCNC(=O)COCCOCCNC(=O)COCCOCCNC(=O)CC[C@H](NC(=O)CCCCCCCCCCCCCCCCC(=O)O)C(=O)O)C(=O)N[C@@H](Cc1c[nH]c2ccccc12)C(=O)N[C@@H](CC(C)C)C(=O)N[C@@H](CC(C)C)C(=O)N[C@@H](CC(N)=O)C(=O)N[C@H](C(=O)O)[C@@H](C)O)C(C)C` [Example 2] (H-H[dS]QGTFTSDYSKYLDERRAQDFVK([AEEA-AEEA-γGlu-C18 diacid])WLLNT-OH; N-terminus and C-terminus assumed), the midpoint of the response, the EC50, lay at 0.149 nM. That is a sub-nanomolar value.
In the case of `CC(C)C[C@H](NC(=O)[C@H](Cc1ccc(O)cc1)NC(=O)[C@H](CCCCN)NC(=O)[C@H](CO)NC(=O)[C@H](Cc1ccc(O)cc1)NC(=O)[C@H](CC(=O)O)NC(=O)[C@H](CO)NC(=O)[C@@H](NC(=O)[C@H](Cc1ccccc1)NC(=O)[C@@H](NC(=O)CNC(=O)[C@H](CCC(N)=O)NC(=O)[C@H](CO)NC(=O)[C@@H](N)Cc1c[nH]cn1)[C@@H](C)O)[C@@H](C)O)C(=O)N[C@@H](CC(=O)O)C(=O)N[C@@H](CO)C(=O)N[C@@H](CCCCN)C(=O)N[C@@H](CCCNC(=N)N)C(=O)N[C@@H](C)C(=O)N[C@@H](CCC(N)=O)C(=O)N[C@@H](CCC(=O)O)C(=O)N[C@@H](Cc1ccccc1)C(=O)N[C@H](C(=O)N[C@@H](CCCCNC(=O)COCCOCCNC(=O)COCCOCCNC(=O)CC[C@H](NC(=O)CCCCCCCCCCCCCCCCC(=O)O)C(=O)O)C(=O)N[C@@H](Cc1c[nH]c2ccccc12)C(=O)N[C@@H](CC(C)C)C(=O)N[C@@H](CC(C)C)C(=O)N[C@@H](CC(N)=O)C(=O)N[C@H](C(=O)O)[C@@H](C)O)C(C)C` [Example 4] (H-HSQGTFTSDYSKYLDSKRAQEFVK([AEEA-AEEA-γGlu-C18 diacid])WLLNT-OH; N-terminus and C-terminus assumed), the 50% effective concentration (EC50) (commonly the concentration that produces a half-maximal response) is 0.022 nM.
To `CC(C)C[C@H](NC(=O)[C@H](Cc1ccc(O)cc1)NC(=O)[C@H](CCCCN)NC(=O)[C@H](CO)NC(=O)[C@H](Cc1ccc(O)cc1)NC(=O)[C@H](CC(=O)O)NC(=O)[C@H](CO)NC(=O)[C@@H](NC(=O)[C@H](Cc1ccccc1)NC(=O)[C@@H](NC(=O)CNC(=O)[C@H](CCC(N)=O)NC(=O)[C@H](CO)NC(=O)[C@@H](N)Cc1c[nH]cn1)[C@@H](C)O)[C@@H](C)O)C(=O)N[C@@H](CC(=O)O)C(=O)N[C@@H](CCCCNC(=O)COCCOCCNC(=O)COCCOCCNC(=O)CC[C@H](NC(=O)CCCCCCCCCCCCCCCCC(=O)O)C(=O)O)C(=O)N[C@@H](CCCCN)C(=O)N[C@@H](CCCNC(=N)N)C(=O)N[C@@H](C)C(=O)N[C@@H](CCC(N)=O)C(=O)N[C@@H](CCC(=O)O)C(=O)N[C@@H](Cc1ccccc1)C(=O)N[C@H](C(=O)N[C@@H](CCC(N)=O)C(=O)N[C@@H](Cc1c[nH]c2ccccc12)C(=O)N[C@@H](CC(C)C)C(=O)N[C@@H](CC(C)C)C(=O)N[C@@H](CC(N)=O)C(=O)N[C@H](C(=O)O)[C@@H](C)O)C(C)C` [Example 5] (H-HSQGTFTSDYSKYLDK([AEEA-AEEA-γGlu-C18 diacid])KRAQEFVQWLLNT-OH; N-terminus and C-terminus assumed) belongs 0.02 nM.
In the case of `CC(C)C[C@H](NC(=O)[C@H](Cc1ccc(O)cc1)NC(=O)[C@H](CCCCN)NC(=O)[C@H](CO)NC(=O)[C@H](Cc1ccc(O)cc1)NC(=O)[C@H](CC(=O)O)NC(=O)[C@H](CO)NC(=O)[C@@H](NC(=O)[C@H](Cc1ccccc1)NC(=O)[C@@H](NC(=O)CNC(=O)[C@H](CCC(N)=O)NC(=O)[C@H](CO)NC(=O)[C@@H](N)Cc1c[nH]cn1)[C@@H](C)O)[C@@H](C)O)C(=O)N[C@@H](CC(=O)O)C(=O)N[C@@H](CCCCNC(=O)COCCOCCNC(=O)COCCOCCNC(=O)CC[C@H](NC(=O)CCCCCCCCCCCCCCCCC(=O)O)C(=O)O)C(=O)N[C@@H](CCCCN)C(=O)N[C@@H](CCCCN)C(=O)N[C@@H](C)C(=O)N[C@@H](CCC(N)=O)C(=O)N[C@@H](CCC(=O)O)C(=O)N[C@@H](Cc1ccccc1)C(=O)N[C@H](C(=O)N[C@@H](CCC(N)=O)C(=O)N[C@@H](Cc1c[nH]c2ccccc12)C(=O)N[C@@H](CC(C)C)C(=O)N[C@@H](CC(C)C)C(=O)N[C@@H](CC(N)=O)C(=O)N[C@H](C(=O)O)[C@@H](C)O)C(C)C` [Example 6] (H-HSQGTFTSDYSKYLDK([AEEA-AEEA-γGlu-C18 diacid])KKAQEFVQWLLNT-OH; N-terminus and C-terminus assumed), the EC50 is 0.02 nM.
The same measure for `CC(C)C[C@H](NC(=O)[C@H](Cc1ccc(O)cc1)NC(=O)[C@H](CCCCN)NC(=O)[C@H](CO)NC(=O)[C@H](Cc1ccc(O)cc1)NC(=O)[C@H](CC(=O)O)NC(=O)[C@H](CO)NC(=O)[C@@H](NC(=O)[C@H](Cc1ccccc1)NC(=O)[C@@H](NC(=O)CNC(=O)[C@H](CCC(N)=O)NC(=O)[C@H](CO)NC(=O)[C@@H](N)Cc1c[nH]cn1)[C@@H](C)O)[C@@H](C)O)C(=O)N[C@@H](CC(=O)O)C(=O)N[C@@H](CO)C(=O)N[C@@H](CCCNC(=N)N)C(=O)N[C@@H](CCCNC(=N)N)C(=O)N[C@@H](C)C(=O)N[C@@H](CCC(N)=O)C(=O)N[C@@H](CC(=O)O)C(=O)N[C@@H](Cc1ccccc1)C(=O)N[C@H](C(=O)N[C@@H](CCC(N)=O)C(=O)N[C@@H](CCCCNC(=O)COCCOCCNC(=O)COCCOCCNC(=O)CC[C@H](NC(=O)CCCCCCCCCCCCCCCCC(=O)O)C(=O)O)C(=O)N[C@@H](CC(C)C)C(=O)N[C@@H](CC(C)C)C(=O)N[C@@H](CC(N)=O)C(=O)N[C@H](C(=O)O)[C@@H](C)O)C(C)C` [Example 7]: 0.155 nM; for `CC(C)C[C@H](NC(=O)[C@H](Cc1ccc(O)cc1)NC(=O)[C@H](CCCCN)NC(=O)[C@H](CO)NC(=O)[C@H](Cc1ccc(O)cc1)NC(=O)[C@H](CC(=O)O)NC(=O)[C@H](CO)NC(=O)[C@@H](NC(=O)[C@H](Cc1ccccc1)NC(=O)[C@@H](NC(=O)CNC(=O)[C@H](CCC(N)=O)NC(=O)[C@H](CO)NC(=O)[C@@H](N)Cc1c[nH]cn1)[C@@H](C)O)[C@@H](C)O)C(=O)N[C@@H](CC(=O)O)C(=O)N[C@@H](CO)C(=O)N[C@@H](CCCNC(=N)N)C(=O)N[C@@H](CCCNC(=N)N)C(=O)N[C@@H](C)C(=O)N[C@@H](CCC(N)=O)C(=O)N[C@@H](CC(=O)O)C(=O)N[C@@H](Cc1ccccc1)C(=O)N[C@H](C(=O)N[C@@H](CCC(N)=O)C(=O)N[C@@H](Cc1c[nH]c2ccccc12)C(=O)N[C@@H](CC(C)C)C(=O)N[C@@H](CC(C)C)C(=O)N[C@@H](CCCCNC(=O)COCCOCCNC(=O)COCCOCCNC(=O)CC[C@H](NC(=O)CCCCCCCCCCCCCCCCC(=O)O)C(=O)O)C(=O)N[C@H](C(=O)O)[C@@H](C)O)C(C)C` [Example 8]: 0.022 nM.
The compound `CC(C)C[C@H](NC(=O)[C@H](CC(C)C)NC(=O)[C@H](Cc1c[nH]c2ccccc12)NC(=O)[C@H](CCC(N)=O)NC(=O)[C@@H](NC(=O)[C@H](Cc1ccccc1)NC(=O)[C@H](CC(=O)O)NC(=O)[C@H](CCC(N)=O)NC(=O)[C@H](C)NC(=O)[C@H](CCCNC(=N)N)NC(=O)[C@H](CCCNC(=N)N)NC(=O)[C@H](CO)NC(=O)[C@H](CC(=O)O)NC(=O)[C@H](CC(C)C)NC(=O)[C@H](Cc1ccc(O)cc1)NC(=O)[C@H](CCCCN)NC(=O)[C@H](CO)NC(=O)[C@H](Cc1ccc(O)cc1)NC(=O)[C@H](CC(=O)O)NC(=O)[C@H](CO)NC(=O)[C@@H](NC(=O)[C@H](Cc1ccccc1)NC(=O)[C@@H](NC(=O)CNC(=O)[C@H](CCC(N)=O)NC(=O)[C@H](CO)NC(=O)[C@@H](N)Cc1c[nH]cn1)[C@@H](C)O)[C@@H](C)O)C(C)C)C(=O)N[C@@H](CC(N)=O)C(=O)N[C@@H](CCCCNC(=O)COCCOCCNC(=O)COCCOCCNC(=O)CC[C@H](NC(=O)CCCCCCCCCCCCCCCCC(=O)O)C(=O)O)C(=O)O` [Example 10] showed an EC50 of 0.046 nM.
To `CC(C)C[C@H](NC(=O)[C@H](Cc1c[nH]c2ccccc12)NC(=O)[C@H](CCCCNC(=O)COCCOCCNC(=O)COCCOCCNC(=O)CC[C@H](NC(=O)CCCCCCCCCCCCCCCCC(=O)O)C(=O)O)NC(=O)[C@@H](NC(=O)[C@H](Cc1ccccc1)NC(=O)[C@H](CC(=O)O)NC(=O)[C@H](CCC(N)=O)NC(=O)[C@H](C)NC(=O)[C@H](CCCNC(=N)N)NC(=O)[C@H](CCCNC(=N)N)NC(=O)[C@@H](NC(=O)[C@H](CC(=O)O)NC(=O)[C@H](CC(C)C)NC(=O)[C@H](Cc1ccc(O)cc1)NC(=O)[C@H](CCCCN)NC(=O)[C@H](CO)NC(=O)[C@H](Cc1ccc(O)cc1)NC(=O)[C@H](CC(=O)O)NC(=O)[C@H](CO)NC(=O)[C@@H](NC(=O)[C@H](Cc1ccccc1)NC(=O)[C@@H](NC(=O)CNC(=O)[C@H](CCC(N)=O)NC(=O)[C@H](CO)NC(=O)[C@@H](N)Cc1c[nH]cn1)[C@@H](C)O)[C@@H](C)O)[C@@H](C)O)C(C)C)C(=O)N[C@@H](CC(C)C)C(=O)N[C@@H](CO)C(=O)N[C@H](C(=O)O)[C@@H](C)O` [Example 13] (H-HSQGTFTSDYSKYLDTRRAQDFVK([AEEA-AEEA-γGlu-C18 diacid])WLLST-OH; N-terminus and C-terminus assumed) belongs 0.016 nM; to `CC(C)C[C@H](NC(=O)[C@H](Cc1ccc(O)cc1)NC(=O)[C@H](CCCCN)NC(=O)[C@H](CO)NC(=O)[C@H](Cc1ccc(O)cc1)NC(=O)[C@H](CC(=O)O)NC(=O)[C@H](CO)NC(=O)[C@@H](NC(=O)[C@H](Cc1ccccc1)NC(=O)[C@@H](NC(=O)CNC(=O)[C@H](CCC(N)=O)NC(=O)[C@H](CO)NC(=O)[C@@H](N)Cc1c[nH]cn1)[C@@H](C)O)[C@@H](C)O)C(=O)N[C@@H](CC(=O)O)C(=O)N[C@@H](CO)C(=O)N[C@@H](CCCNC(=N)N)C(=O)N[C@@H](CCCNC(=N)N)C(=O)N[C@@H](C)C(=O)N[C@@H](CCC(N)=O)C(=O)N[C@@H](CC(=O)O)C(=O)N[C@@H](Cc1ccccc1)C(=O)N[C@H](C(=O)N[C@@H](CCCCNC(=O)COCCOCCNC(=O)COCCOCCNC(=O)CC[C@H](NC(=O)CCCCCCCCCCCCCCCCC(=O)O)C(=O)O)C(=O)N[C@@H](Cc1c[nH]c2ccccc12)C(=O)N[C@@H](CC(C)C)C(=O)N[C@@H](CC(C)C)C(=O)N[C@@H](CO)C(=O)N[C@H](C(=O)O)[C@@H](C)O)C(C)C` [Example 14], 0.02 nM.

The values are drawn from patent US20160271263A1 (Novo Nordisk A/S, priority 2010, published 2016).
